Experimental data from BindingDB's records for patent US9708333 (Incyte Corporation, 2017).

Experiments:
[1] = molecular target: Tyrosine-protein kinase JAK1 (Homo sapiens, UniProt P23458); test: JAK1 Assay
[2] = molecular target: T1, Phosphatidylinositol 4,5-bisphosphate 3-kinase catalytic subunit delta isoform (Homo sapiens, UniProt O00329); test: PI3K Delta Assay
T1 sequence (O00329 whole entry): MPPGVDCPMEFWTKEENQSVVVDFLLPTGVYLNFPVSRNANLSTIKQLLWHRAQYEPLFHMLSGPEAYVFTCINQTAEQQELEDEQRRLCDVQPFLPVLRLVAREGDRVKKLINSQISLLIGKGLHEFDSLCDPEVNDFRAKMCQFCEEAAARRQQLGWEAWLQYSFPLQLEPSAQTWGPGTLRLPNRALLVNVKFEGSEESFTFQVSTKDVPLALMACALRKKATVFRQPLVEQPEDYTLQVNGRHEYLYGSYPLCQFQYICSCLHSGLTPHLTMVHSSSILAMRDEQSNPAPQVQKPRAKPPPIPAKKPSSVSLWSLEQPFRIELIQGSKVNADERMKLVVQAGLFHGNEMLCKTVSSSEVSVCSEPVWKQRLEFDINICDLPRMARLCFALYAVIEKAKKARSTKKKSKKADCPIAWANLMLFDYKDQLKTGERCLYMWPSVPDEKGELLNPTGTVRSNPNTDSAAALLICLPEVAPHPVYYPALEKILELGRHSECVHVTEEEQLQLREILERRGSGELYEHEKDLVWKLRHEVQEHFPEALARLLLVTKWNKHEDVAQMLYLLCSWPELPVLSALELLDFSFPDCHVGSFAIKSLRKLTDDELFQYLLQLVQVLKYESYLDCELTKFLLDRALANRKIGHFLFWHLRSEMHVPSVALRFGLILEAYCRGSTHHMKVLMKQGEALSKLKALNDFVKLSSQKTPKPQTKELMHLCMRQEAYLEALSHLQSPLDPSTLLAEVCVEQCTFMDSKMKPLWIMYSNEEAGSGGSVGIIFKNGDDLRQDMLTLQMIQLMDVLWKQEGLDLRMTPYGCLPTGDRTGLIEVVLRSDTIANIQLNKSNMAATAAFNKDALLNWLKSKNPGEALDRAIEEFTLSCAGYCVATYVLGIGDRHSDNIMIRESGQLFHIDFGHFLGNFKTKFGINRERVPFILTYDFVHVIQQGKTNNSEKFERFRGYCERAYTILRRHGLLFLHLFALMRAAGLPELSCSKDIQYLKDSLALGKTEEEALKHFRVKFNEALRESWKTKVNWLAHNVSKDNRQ
Source text: Selectivity can be measured by methods routine in the art. In some embodiments, selectivity can be tested at the Km ATP concentration of each enzyme. In some embodiments, the selectivity of compounds described herein can be determined by cellular assays associated with particular PI3K kinase activity.

Tyrosine-protein kinase JAK1, sequence (P23458 whole entry, canonical isoform): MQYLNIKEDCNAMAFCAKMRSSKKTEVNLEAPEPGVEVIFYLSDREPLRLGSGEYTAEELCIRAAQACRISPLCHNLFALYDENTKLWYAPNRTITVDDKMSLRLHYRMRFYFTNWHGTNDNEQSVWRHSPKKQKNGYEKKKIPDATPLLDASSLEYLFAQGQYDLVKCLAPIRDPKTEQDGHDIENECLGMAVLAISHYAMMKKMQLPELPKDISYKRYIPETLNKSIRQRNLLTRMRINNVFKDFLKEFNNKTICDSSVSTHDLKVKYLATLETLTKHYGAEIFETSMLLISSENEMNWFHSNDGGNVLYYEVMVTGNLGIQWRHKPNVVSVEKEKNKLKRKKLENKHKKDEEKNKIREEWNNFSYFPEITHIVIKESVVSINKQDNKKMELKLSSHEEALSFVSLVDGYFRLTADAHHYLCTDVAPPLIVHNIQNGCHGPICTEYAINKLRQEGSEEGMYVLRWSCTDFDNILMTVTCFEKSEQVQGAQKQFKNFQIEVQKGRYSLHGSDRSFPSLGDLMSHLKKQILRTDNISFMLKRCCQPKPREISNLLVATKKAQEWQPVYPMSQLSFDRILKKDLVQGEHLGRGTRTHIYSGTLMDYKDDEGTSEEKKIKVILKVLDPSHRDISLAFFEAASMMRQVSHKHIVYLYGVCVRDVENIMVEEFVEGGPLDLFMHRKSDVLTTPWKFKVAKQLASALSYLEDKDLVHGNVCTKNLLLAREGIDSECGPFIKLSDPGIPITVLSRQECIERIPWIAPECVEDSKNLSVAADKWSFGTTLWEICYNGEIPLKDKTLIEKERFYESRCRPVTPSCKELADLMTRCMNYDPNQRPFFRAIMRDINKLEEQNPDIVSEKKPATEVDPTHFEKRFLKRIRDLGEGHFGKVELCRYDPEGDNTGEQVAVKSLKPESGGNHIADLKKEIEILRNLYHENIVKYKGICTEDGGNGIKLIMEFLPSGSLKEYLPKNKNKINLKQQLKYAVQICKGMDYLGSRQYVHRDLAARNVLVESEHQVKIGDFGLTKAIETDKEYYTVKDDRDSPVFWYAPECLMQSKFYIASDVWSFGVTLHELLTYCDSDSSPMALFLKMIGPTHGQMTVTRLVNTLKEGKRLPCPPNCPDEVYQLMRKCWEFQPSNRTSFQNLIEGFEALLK

## N#CCC(CN1CCN(C(=O)c2ccc(C#N)cc2F)CC1)n1cc(-c2ncnc3[nH]ccc23)cn1 (configuration not stated) [4-[(4-{3-cyano-2-[4-(7H-pyrrolo[2,3-d]pyrimidin-4-yl)-1H-pyrazol-1-yl]propyl}piperazin-1-yl)carbonyl]-3-fluorobenzonitrile]
[1]
  IC50: < 10 nM

## CCOc1c(C(C)n2nc(C)c3c(N)ncnc32)cc(Cl)c(F)c1C1CNC(=O)C1 (configuration not stated) [4-{3-[1-(4-amino-3-methyl-1H-pyrazolo[3,4 d]pyrimidin-1-yl)ethyl]-5-chloro-2-ethoxy-6-fluorophenyl}pyrrolidin-2-one]
[2]
  IC50: 125 nM
